{"source": "patent US20120009125A1", "about": "“APOE4 AND APOJ BIOMARKER-BASED PREVENTION AND TREATMENT OF DEMENTIA” (priority 2010, published 2012)", "origin": "cited, not measured here", "key": {"Hsp70, Hsp90, and Hsp105": {"system": "Hsp70, Hsp90, and Hsp105", "conditions": "cell model"}, "HSPs": {"system": "HSPs", "conditions": "oral administration"}}, "note": "Like-named read-outs stand apart in the source and are kept apart here.", "data": [{"compound": "CC(=O)CC/C=C(\\C)CC/C=C(\\C)CC/C=C(\\C)CCC=C(C)C", "note": "[GGA, (9E;13E)-6,10,14,18-tetramethyl-5,9,13,17-nonadecatetraen-2-one]", "values": [{"measurement": "cell death", "setting": "cell model", "value": "inhibited"}, {"measurement": "levels of Hsp70, Hsp90, and Hsp105", "setting": "Hsp70, Hsp90, and Hsp105", "value": "increased"}, {"measurement": "expression of HSPs in the central nervous system", "setting": "HSPs", "value": "up-regulated"}, {"measurement": "amyloid oligomer levels and aggregates", "setting": "amyloid oligomer", "value": "reduces"}, {"measurement": "amyloid oligomer levels and aggregates", "setting": "amyloid oligomer; oral administration", "value": "reduces"}, {"measurement": "solubility in water", "value": "practically insoluble"}]}]}
